The numbers were not newly measured in PMC7162861, “Synthesis, cytotoxicity, pharmacokinetic profile, binding with DNA and BSA of new imidazo[1,2-a]pyrazine-benzo[d]imidazol-5-yl hybrids” (Scientific Reports, 2020), which cites them from elsewhere.

Structures are written as SMILES.

The test system of the data set is EtBr-CT-DNA complex. Also on record: method as in printed. As to conditions: used in Eq. 4; ref not given; cited from earlier work.

As for `CC[n+]1c(-c2ccccc2)c2cc(N)ccc2c2ccc(N)cc21` [ethidium bromide], the “known binding constant KEtBr” value was 1e+07 M⁻¹.
